We go through three compounds from patent publication US10221426B2, “Constitutively active PYR/PYL receptor proteins for improving plant stress tolerance” (The Regents of the University of California, priority 2009, dated 2019).

Structures are written as SMILES.

Assay [1] has as its target T1, PYR1 and PP2Cs (GST-HAB1, GST-ABI1, GST-ABI2) (Arabidopsis thaliana, UniProt O49686).
T1 construct: made in house; host or cells: E. coli BL21[DE3]pLysS
T1 sequence (O49686 1-191): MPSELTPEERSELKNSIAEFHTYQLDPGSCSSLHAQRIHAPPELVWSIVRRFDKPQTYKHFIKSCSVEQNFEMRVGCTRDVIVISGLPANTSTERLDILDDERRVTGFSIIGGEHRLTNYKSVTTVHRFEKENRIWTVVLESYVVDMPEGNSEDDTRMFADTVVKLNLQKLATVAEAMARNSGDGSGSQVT
T1 sequence (Q9CAJ0 1-511 partner): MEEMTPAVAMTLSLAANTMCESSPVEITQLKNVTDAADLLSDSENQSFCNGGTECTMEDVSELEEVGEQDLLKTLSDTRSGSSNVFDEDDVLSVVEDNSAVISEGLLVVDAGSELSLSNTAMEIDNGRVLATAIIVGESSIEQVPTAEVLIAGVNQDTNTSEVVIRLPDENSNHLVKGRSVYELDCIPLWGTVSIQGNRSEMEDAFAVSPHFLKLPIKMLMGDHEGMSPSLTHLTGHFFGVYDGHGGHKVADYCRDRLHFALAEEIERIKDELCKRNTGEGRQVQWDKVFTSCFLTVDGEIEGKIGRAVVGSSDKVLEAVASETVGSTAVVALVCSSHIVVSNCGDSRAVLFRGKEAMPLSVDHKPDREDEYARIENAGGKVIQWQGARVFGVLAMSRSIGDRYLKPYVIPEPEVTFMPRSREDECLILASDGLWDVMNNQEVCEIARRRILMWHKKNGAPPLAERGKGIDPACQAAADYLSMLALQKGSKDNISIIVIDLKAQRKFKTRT
Put plainly: Pull-down assay of 6×His-PYR1 with GST-PP2Cs. Conditions: purified recombinant proteins; 10 μM (+)-ABA. Format: binding. On the procedure:
To explore the functional implications of the PYR1-PP2C interaction, we examined if an ABA response could be reconstituted in vitro. Recombinant GST-HAB1, GST-ABI1 and GST-ABI2 were expressed in E. coli and tested for ligand-dependent interactions with 6×His-PYR1 in pull-down assays. Purified 6×His-PYR1 and GST-HAB1 (20 and 100 μg respectively, 8 μM PYR1 final concentration), were combined in 100 μl TBS containing 10 μM (+)-ABA or 1% DMSO for negative control. The reaction was incubated for 90 minutes at RT and 5 μl of PrepEase (USB) His-tagged protein purification resin was added. The resin and reaction mixture was incubated 30 min at RT with gentle shaking at 5 min intervals. The resin was washed five times with TBS containing 10 μM (+)-ABA. After the final wash, the bound protein was eluted in 20 μl SDS-PAGE buffer, boiled for 5 minutes and centrifuged. 5 μl of eluate was analyzed on SDS-PAGE. For pull-downs with ABI1 and ABI2, crude lysates were used in a similar method, except purified PP2C was replaced with cleared E. coli lysates. The amount of lysate added was determined by SDS-page analysis to yield ˜100 μg PP2C, such that the same stoichiometry was used as in assays using purified proteins.

The target of assay [2] is T2, HAB1 in the presence of PYL4 (Arabidopsis thaliana, UniProt O80920).
T2 construct: vector pHB3; made in house
T2 sequence (O80920 1-207): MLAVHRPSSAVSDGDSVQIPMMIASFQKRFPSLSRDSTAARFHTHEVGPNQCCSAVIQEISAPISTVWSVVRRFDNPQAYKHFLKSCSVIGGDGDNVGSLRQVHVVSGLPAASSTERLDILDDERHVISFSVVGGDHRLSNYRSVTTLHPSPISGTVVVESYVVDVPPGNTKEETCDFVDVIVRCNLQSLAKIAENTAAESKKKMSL
T2 sequence (Q9CAJ0 23-511 partner): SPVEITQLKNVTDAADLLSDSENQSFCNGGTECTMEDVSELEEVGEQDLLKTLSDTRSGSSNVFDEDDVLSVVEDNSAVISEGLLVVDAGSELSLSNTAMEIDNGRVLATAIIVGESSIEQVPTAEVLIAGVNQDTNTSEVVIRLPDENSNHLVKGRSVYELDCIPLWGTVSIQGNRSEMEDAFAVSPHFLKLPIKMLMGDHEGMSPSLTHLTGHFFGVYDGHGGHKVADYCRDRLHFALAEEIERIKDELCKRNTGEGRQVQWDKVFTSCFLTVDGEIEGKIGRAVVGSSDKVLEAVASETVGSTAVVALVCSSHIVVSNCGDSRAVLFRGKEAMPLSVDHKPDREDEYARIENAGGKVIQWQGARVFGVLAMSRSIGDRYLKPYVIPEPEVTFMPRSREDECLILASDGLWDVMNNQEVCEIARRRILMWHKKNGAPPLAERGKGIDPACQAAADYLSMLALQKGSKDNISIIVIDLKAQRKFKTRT
The assay can be described thus: PP2C phosphatase assay (pNPP), GST-HAB1 in the presence of PYL4. The class given is biochemical. Conditions: recombinant PYL4 refolded from inclusion bodies.

On to `O=S(=O)(NCc1ccccn1)c1ccc(Br)c2ccccc12` [pyrabactin], for which the “ligand-dependent PP2C interaction with 6×His-PYR1 in pull-down” value in assay [1] is on record as “promote PP2C interactions with PYR1”.

Regarding `CC1=CC(=O)CC(C)(C)[C@@]1(O)/C=C/C(C)=C\C(=O)O` [ABA, Abscisic acid], the “inhibition of HAB1 phosphatase activity in the presence of PYL4” value in assay [2] is reported as “saturable inhibition”.

For `CC1=CC(=O)CC(C)(C)C1(O)/C=C/C(C)=C\C(=O)O` (single isomer, unassigned; (+)) [(+)-ABA], the “ligand-dependent PP2C interaction with 6×His-PYR1 in pull-down” value in assay [1] is listed as “promote PP2C interactions with PYR1”. Moreover, the “inhibition of HAB1 phosphatase activity in the presence of PYL4” value in assay [2] was “inhibits HAB1 phosphatase activity”.
